The text below walks through data of patent publication US20050032873A1, “3-Amino chroman and 2-amino tetralin derivatives” (Wyeth, priority 2003, published 2005).

One test has as its target T1, 5-HT1A receptor (Homo sapiens, UniProt P08908).
T1 sequence (P08908 1-422): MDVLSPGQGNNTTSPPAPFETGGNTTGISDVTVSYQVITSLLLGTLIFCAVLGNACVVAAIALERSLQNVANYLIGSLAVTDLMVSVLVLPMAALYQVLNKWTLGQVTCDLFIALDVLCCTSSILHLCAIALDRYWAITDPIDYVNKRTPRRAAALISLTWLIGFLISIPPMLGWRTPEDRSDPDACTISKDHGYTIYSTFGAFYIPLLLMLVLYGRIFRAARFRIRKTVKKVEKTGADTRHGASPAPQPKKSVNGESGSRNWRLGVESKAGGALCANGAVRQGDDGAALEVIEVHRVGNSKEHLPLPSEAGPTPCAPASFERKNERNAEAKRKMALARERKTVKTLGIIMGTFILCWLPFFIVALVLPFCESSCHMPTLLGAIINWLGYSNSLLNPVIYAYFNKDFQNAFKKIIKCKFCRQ
The experiment in a line: 5-HT1A receptor affinity: displacement of [3H] 8-OH-DPAT. It counts as binding. Also noted: expressed in transfected cells. The conditions noted are these: for pKi: displacement of [3H] 8-OH-DPAT, CHO cells stably transfected with human 5-HT1A receptors, read-out: 5-HT1A Receptor Affinity Ki; for inhibition at 1 µM: read-out: 5-HT1A Receptor Affinity, % @ 1 μM. (Loss of bound radioactivity is the signal in a displacement assay; it reports binding, not function.)

Test [1] concerns the target T2, cloned human 5-HT1A receptors (Homo sapiens, UniProt P08908).
T2 construct: expressed in transfected cells
T2 sequence (P08908 1-422): T1 sequence (P08908 1-422)
The experiment in a line: 35S-GTPγS binding assay, 5-HT1A function. It counts as biochemical. The conditions noted are these: for pEC50: agonist potency; for pIC50: antagonist potency, reversal of 8-OH-DPAT, read-out: 5-HT1A Function GTPγS IC50. A general note: GTPγS resists hydrolysis and so accumulates on activated G proteins.

The target of a further test is T3, serotonin transporter (Rattus norvegicus, UniProt P31652).
T3 construct: displace ^3H-paroxetine from male rat cortical membranes; from tissue; host or cells: male rat cortical membranes
The experiment in a line: 5-HT transporter affinity: displacement of 3H-paroxetine from male rat cortical membranes. The format is binding. The settings on record: displacement of 3H-paroxetine; male rat cortical membranes; read-out: 5-HT Transporter Affinity Ki.

[2] abbreviates: maximum stimulatory effect, in brackets after EC50, read-out: 5-HT1A Function GTPγS (Emax).
The mark [3] stands for this setting: maximum inhibitory effect, in brackets after IC50, read-out: 5-HT1A Function GTPγS (Imax).

SMILES strings stand for the structures. pEC50, pIC50, pKi: −log10 of the molar value. Where two headings read alike, the source gives them in different places.

T3 sequence (P31652 whole entry): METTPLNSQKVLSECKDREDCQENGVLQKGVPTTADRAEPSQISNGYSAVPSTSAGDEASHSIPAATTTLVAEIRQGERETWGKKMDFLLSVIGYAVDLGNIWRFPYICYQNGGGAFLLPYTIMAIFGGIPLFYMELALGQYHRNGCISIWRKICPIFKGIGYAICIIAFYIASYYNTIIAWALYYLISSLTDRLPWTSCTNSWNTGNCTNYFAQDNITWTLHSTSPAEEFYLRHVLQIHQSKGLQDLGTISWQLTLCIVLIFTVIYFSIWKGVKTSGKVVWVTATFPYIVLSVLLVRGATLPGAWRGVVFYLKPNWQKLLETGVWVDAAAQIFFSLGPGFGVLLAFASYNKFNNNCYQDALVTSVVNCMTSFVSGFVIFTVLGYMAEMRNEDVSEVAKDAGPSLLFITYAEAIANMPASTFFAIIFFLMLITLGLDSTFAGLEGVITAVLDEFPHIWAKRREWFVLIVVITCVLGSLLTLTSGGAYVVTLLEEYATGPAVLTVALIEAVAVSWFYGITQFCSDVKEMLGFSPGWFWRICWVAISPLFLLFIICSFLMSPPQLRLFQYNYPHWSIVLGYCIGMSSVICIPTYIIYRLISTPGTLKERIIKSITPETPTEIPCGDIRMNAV

As usually defined, the pKi is the negative decadic logarithm of the Ki, by convention in mol/L. By pEC50 is commonly meant the negative decadic logarithm of the EC50, by convention in mol/L. Low values mean a large EC50, high ones a small EC50. Consider `NC(=O)c1ccc(F)c2c1OCC(NCCCCc1c[nH]c3ccc(F)cc13)C2` (stereo not drawn) [Compound 123, 5-fluoro-3-{[4-(5-fluoro-1H-indol-3-yl)butyl]amino}chromane-8-carboxamide], for which the pKi on 5-HT1A receptor was 6.55; at serotonin transporter, 8.42. The same molecule gave a negative logarithm of the EC50 (pEC50) in test [1] of 5.65. Besides, in test [1] (setting [2]), the Emax came out at 100%.

With `NC(=O)c1ccc(F)c2c1OCC(NCCCc1c[nH]c3ccc(F)cc13)C2` (stereo not drawn) [Compound 119, 5-fluoro-3-{[3-(5-fluoro-1H-indol-3-yl)propyl]amino}chromane-8-carboxamide], the negative logarithm of the Ki (pKi) at 5-HT1A receptor was 7.43; on serotonin transporter it was 7.85. The molecule further showed a negative logarithm of the EC50 (pEC50) in test [1] of 5.50. Also, the Emax in test [1] (setting [2]) was determined as 100%.

As usually defined, the pIC50 is the negative decadic logarithm of the IC50, by convention in mol/L. Regarding `COC(=O)c1ccc(F)c2c1C[C@H](N(CCCCc1c[nH]c3ccc(F)cc13)C1CCC1)CO2` [Compound 58a, Methyl (3S)-3-{cyclobutyl[4-(5-fluoro-1H-indol-3-yl)butyl]amino}-8-fluorochromane-5-carboxylate], the inhibition at 1 µM at 5-HT1A receptor is 0%. Also, the negative logarithm of the IC50 (pIC50) in test [1] is 5.71. Besides, in test [1] (setting [3]), the Emax is 25%. Besides, the pKi at serotonin transporter is 7.33.

For `NC(=O)c1ccc(F)c2c1CC(N(CCCCn1ccc3ccc(F)cc31)C1CCC1)CO2` (stereo not drawn) [Compound 196, 3-{Cyclobutyl[4-(6-fluoro-1H-indol-1-yl)butyl]amino}-8-fluorochromane-5-carboxamide], the pKi was 7.89 on 5-HT1A receptor and 6.91 on serotonin transporter. The negative logarithm of the IC50 (pIC50) in test [1] is 6.37. The Emax in test [1] (setting [3]) was determined as 100%.

For the molecule `COc1cccc2c(CCCNC3COc4c(F)ccc(C(N)=O)c4C3)c[nH]c12` (stereo not drawn) [Compound 99, 8-fluoro-3-{[3-(7-methoxy-1H-indol-3-yl)propyl]amino}chromane-5-carboxamide], the inhibition at 1 µM at 5-HT1A receptor came to 48%. Also, the negative-log IC50 (pIC50) in test [1] was 5.40. For the same molecule, the Emax in test [1] (setting [3]) worked out at 100%. In addition, the pKi on serotonin transporter is 6.28.

For `CNC(=O)c1ccc(F)c2c1CC(NCCCc1c[nH]c3ccc(F)cc13)CO2` (stereo not drawn) [Compound 88, 8-fluoro-3-{[3-(5-fluoro-1H-indol-3-yl)propyl]amino}-N-methylchromane-5-carboxamide], the pKi at 5-HT1A receptor was 7.26; at serotonin transporter it was 7.91. Further, the pEC50 in test [1] is 5.75. Also, the Emax in test [1] (setting [2]) turned out to be 94%.

For the molecule `O=C(NC1CC1)c1cccc2c1CC(N(CCCc1c[nH]c3c(F)cc(F)cc13)C1CCC1)CO2` (stereo not drawn) [Compound 142, 3-{cyclobutyl[3-(5,7-difluoro-1H-indol-3-yl)propyl]amino}-N-cyclopropylchromane-5-carboxamide], the results for the pKi at 5-HT1A receptor and on serotonin transporter were 8.39 and 8.41, respectively. The negative logarithm of the EC50 (pEC50) in test [1] was 6.91. Further, the Emax in test [1] (setting [2]) is 54%.

With `CCCN(CCCc1c[nH]c2ccc(F)cc12)C1COc2c(C(N)=O)ccc(F)c2C1` (stereo not drawn) [Compound 120, 5-fluoro-3-[[3-(5-fluoro-1H-indol-3-yl)propyl](propyl)amino]chromane-8-carboxamide], the pKi at 5-HT1A receptor was 6.86; at serotonin transporter, 7.65. In test [1], this molecule showed a pEC50 of 5.96. Besides, the Emax in test [1] (setting [2]) was determined as 67%.

As to `CC(C1CC1)N(CCCc1c[nH]c2ccc(F)cc12)C1COc2c(F)ccc(C(N)=O)c2C1` (stereo not drawn) [Compound 6, 3-{(1-cyclopropylethyl)[3-(5-fluoro-1H-indol-3-yl)propyl]amino}-8-fluorochromane-5-carboxamide], the inhibition at 1 µM on 5-HT1A receptor was found to be 30%. Moreover, the negative-log IC50 (pIC50) in test [1] was 5.32. For the same molecule, the Emax in test [1] (setting [3]) turned out to be 87%. For the same molecule, the negative logarithm of the Ki (pKi) on serotonin transporter was 7.72.

`NC(=O)c1ccc(F)c2c1CC(N(CCCCn1ccc3cc(F)ccc31)C1CCC1)CO2` (stereo not drawn) [Compound 200, 3-{Cyclobutyl[4-(5-fluoro-1H-indol-1-yl)butyl]amino}-8-fluorochromane-5-carboxamide]: the pKi at 5-HT1A receptor was 7.97; at serotonin transporter, 6.62. Also, the pIC50 in test [1] is 5.95. In addition, in test [1] (setting [3]), the Emax worked out at 100%.

As for `NC(=O)c1ccc(F)c2c1CC(N(CC1CCc3[nH]c4ccc(F)cc4c3C1)C1CCC1)CO2` (single isomer, unassigned; (-)) [Compound 174a, (−)-3-{cyclobutyl[(6-fluoro-2,3,4,9-tetrahydro-1H-carbazol-3-yl)methyl]amino}-8-fluorochromane-5-carboxamide], the inhibition at 1 µM on 5-HT1A receptor worked out at 49%. The negative-log IC50 (pIC50) in test [1] is 5.10. The molecule also yielded a 5-HT1A Function GTPγS (Imax) in test [1] (maximum inhibitory effect, in brackets after IC50) of 50%. For the same molecule, the negative-log Ki (pKi) at serotonin transporter is 6.07.

For `CCCNC(=O)c1cccc2c1CC(N(CCCc1c[nH]c3c(F)cc(F)cc13)C1CCC1)CO2` (stereo not drawn) [Compound 140, 3-{cyclobutyl[3-(5,7-difluoro-1H-indol-3-yl)propyl]amino}-N-propylchromane-5-carboxamide], the negative logarithm of the Ki (pKi) on 5-HT1A receptor was 7.41; on serotonin transporter, 8.42. Moreover, the pEC50 in test [1] was 5.99. Besides, the Emax in test [1] (setting [2]) was 65%.

As for `CCCN(CCCCc1c[nH]c2ccc(F)cc12)C1COc2c(C(N)=O)ccc(F)c2C1` (stereo not drawn) [Compound 124, 5-fluoro-3-[[4-(5-fluoro-1H-indol-3-yl)butyl](propyl)amino]chromane-8-carboxamide], the inhibition at 1 µM at 5-HT1A receptor was 48%. For the same molecule, the pEC50 in test [1] is 6.16. Further, the Emax in test [1] (setting [2]) turned out to be 41%. Moreover, the negative-log Ki (pKi) at serotonin transporter was 8.00.

As to `NC(=O)c1cccc2c1C[C@@H](NCCCc1c[nH]c3ccc(F)cc13)CO2` [Compound 133b, (3R)-3-{[3-(5-fluoro-1H-indol-3-yl)propyl]amino}chromane-5-carboxamide], the pKi at 5-HT1A receptor was 7.41; at serotonin transporter, 7.36. Besides, the pEC50 in test [1] was 6.00. For the same molecule, in test [1] (setting [2]), the Emax turned out to be 83%.

With `COc1cccc2c(CCN(C3CCC3)C3COc4c(F)ccc(C(N)=O)c4C3)coc12` (stereo not drawn) [Compound 159, 3-{cyclobutyl[2-(7-methoxy-1-benzofuran-3-yl)ethyl]amino}-8-fluorochromane-5-carboxamide], the inhibition at 1 µM on 5-HT1A receptor is 30%. In addition, in test [1], the negative logarithm of the IC50 (pIC50) is 5.30. In test [1] (setting [3]), the Emax was 25%. Also, the pKi on serotonin transporter was 6.83.

With `NC(=O)c1ccc(F)c2c1OCC(N(CCCc1c[nH]c3ccc(F)cc13)CC1CC1)C2` (stereo not drawn) [Compound 121, 3-{(cyclopropylmethyl)[3-(5-fluoro-1H-indol-3-yl)propyl]amino}-5-fluorochromane-8-carboxamide], the results for the pKi on 5-HT1A receptor and on serotonin transporter were 7.17 and 7.38, respectively. The molecule further had a pEC50 in test [1] of 5.42. For the same molecule, the Emax in test [1] (setting [2]) was determined as 70%.

Regarding `O=C(Nc1ccccc1)c1ccc(F)c2c1CC(N(CCCc1c[nH]c3ccc(F)cc13)C1CCC1)CO2` (stereo not drawn) [Compound 70, 3-{cyclobutyl[3-(5-fluoro-1H-indol-3-yl)propyl]amino}-8-fluoro-N-phenylchromane-5-carboxamide], on 5-HT1A receptor, the inhibition at 1 µM is 36%. Also, in test [1], the pEC50 is 5.74. Further, the Emax in test [1] (setting [2]) was found to be 22%. Moreover, at serotonin transporter, the negative logarithm of the Ki (pKi) was 7.43.

`NC(=O)c1ccc(F)c2c1CC(N(CCCCn1ccc3c(F)cccc31)C1CCC1)CO2` (stereo not drawn) [Compound 204, 3-{Cyclobutyl[4-(4-fluoro-1H-indol-1-yl)butyl]amino}-8-fluorochromane-5-carboxamide]: the negative logarithm of the Ki (pKi) is 7.76 on 5-HT1A receptor and 6.54 on serotonin transporter.

Turning to `O=C(NCc1ccccc1)c1ccc(F)c2c1CC(N(CCCc1c[nH]c3ccc(F)cc13)C1CCC1)CO2` (stereo not drawn) [Compound 69, N-benzyl-3-{cyclobutyl[3-(5-fluoro-1H-indol-3-yl)propyl]amino}-8-fluorochromane-5-carboxamide], the inhibition at 1 µM at 5-HT1A receptor came to 3%. In addition, on serotonin transporter, the negative-log Ki (pKi) is 7.82.
